Experimental data: ChEMBL document CHEMBL3867477 (Bioorg Med Chem Lett, 2016)
Values after ≈ are worked out from the molar mass of the structure shown. Each block holds one compound with its values, some of them ahead of it.

Tests used:
[1] = test system: CHO; test: Selectivity index, ratio of Ki for human OX2 receptor expressed on CHO cell membrane to Ki for Ile408-Val variant human OX1 receptor expressed on CHO cell membrane; format: cell-based
[2] = molecular target: T1, Orexin receptor type 2 (Homo sapiens, UniProt O43614); test: Displacement of (2S)-N-(2-pyrrol-1-ylphenyl)-1-[2-[1-(tritritiomethyl)benzimidazol-2-yl]sulfanylacetyl]pyrrolidine-2-carboxamide from human OX2 receptor expressed on CHO cell membrane measured after 3 hrs by TopCount method; format: cell membranes
T1 sequence (O43614 whole entry): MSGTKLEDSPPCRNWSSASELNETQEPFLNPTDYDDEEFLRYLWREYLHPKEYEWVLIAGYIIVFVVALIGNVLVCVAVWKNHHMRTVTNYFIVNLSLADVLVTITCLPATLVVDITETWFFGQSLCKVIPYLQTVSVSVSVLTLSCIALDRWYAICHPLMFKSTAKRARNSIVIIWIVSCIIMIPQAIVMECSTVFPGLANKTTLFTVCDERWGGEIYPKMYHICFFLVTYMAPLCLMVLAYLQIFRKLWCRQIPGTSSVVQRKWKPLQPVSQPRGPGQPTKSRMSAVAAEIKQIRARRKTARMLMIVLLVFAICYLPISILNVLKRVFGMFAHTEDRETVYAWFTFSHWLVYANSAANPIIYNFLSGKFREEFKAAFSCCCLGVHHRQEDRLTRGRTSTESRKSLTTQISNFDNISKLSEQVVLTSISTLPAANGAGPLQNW

[3] = Clearance in rat at 2 mg/kg, iv; format: ADME, organism-based; settings: in vivo
[4] = Intrinsic clearance in rat liver microsomes; format: ADME; settings: read-out: CLH
[5] = Displacement of (2S)-N-(2-phenylphenyl)-1-[2-[1-(tritritiomethyl)benzimidazol-2-yl]sulfanylacetyl]pyrrolidine-2-carboxamide from human OX1 receptor Ile408-Val mutant expressed on CHO cell membrane measured after 3 hrs by TopCount method; format: cell membranes
[6] = Oral bioavailability in rat at 10 mg/kg; format: ADME, organism-based; settings: in vivo
[7] = molecular target: T2, Orexin/Hypocretin receptor type 1 (Homo sapiens) (UniProt O43613); test: Binding affinity to OX1 receptor (unknown origin) assessed as association rate constant
T2 sequence (whole entry): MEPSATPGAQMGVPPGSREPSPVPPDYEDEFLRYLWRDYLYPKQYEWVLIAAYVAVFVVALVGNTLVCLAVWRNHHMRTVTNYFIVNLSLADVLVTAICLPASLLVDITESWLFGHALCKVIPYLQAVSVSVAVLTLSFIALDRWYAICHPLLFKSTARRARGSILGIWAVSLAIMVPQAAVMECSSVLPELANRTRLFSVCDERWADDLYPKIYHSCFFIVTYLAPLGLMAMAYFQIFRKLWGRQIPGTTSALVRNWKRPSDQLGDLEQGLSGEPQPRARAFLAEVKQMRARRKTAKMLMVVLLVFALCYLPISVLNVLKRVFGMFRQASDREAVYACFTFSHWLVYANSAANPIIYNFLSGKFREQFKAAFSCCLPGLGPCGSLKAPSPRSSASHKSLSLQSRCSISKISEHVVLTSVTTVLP

[8] = Cmax in rat at 50 mg/kg, po; format: ADME, organism-based; design: dose 50 mg/kg, route oral; settings: in vivo
[9] = Antagonist activity at human OX1 receptor Ile408-Val mutant expressed on CHO cell membrane assessed as inhibition of Ala-6,12 orexin-A-induced calcium increase preincubated for 5 mins prior to Ala-6,12 orexin-A addition measured at 1 sec intervals for 1 min by Fluo-4AM dye-based FLIPR assay
[10] = Cmax in rat at 10 mg/kg, po; format: ADME, organism-based; design: dose 10 mg/kg, route oral; settings: in vivo
[11] = test system: Rattus norvegicus; test: Displacement of (2S)-N-(2-phenylphenyl)-1-[2-[1-(tritritiomethyl)benzimidazol-2-yl]sulfanylacetyl]pyrrolidine-2-carboxamide from human OX1R expressed in transgenic rat brain administered orally; format: functional
[12] = Cmax in rat at 20 mg/kg, po; format: ADME, organism-based; design: dose 20 mg/kg, route oral; settings: in vivo
[13] = Clearance in rhesus monkey at 2 mg/kg, iv or 10 mg/kg, po; format: ADME, organism-based, Macaca mulatta; settings: in vivo
[14] = Intrinsic clearance in human liver microsomes; format: ADME; settings: read-out: CLH
[15] = Intrinsic clearance in rhesus monkey liver microsomes; format: ADME, Macaca mulatta; settings: read-out: CLH
[16] = Half life in dog at 0.5 mg/kg, iv or 10 mg/kg, po; format: ADME, organism-based, Canis lupus familiaris; settings: in vivo
[17] = Aqueous solubility of the compound at pH 7; format: physicochemical; settings: aqueous medium
[18] = Protein binding in human plasma; format: ADME, cell-free; settings: read-out: PPB (converted)
[19] = Half life in rhesus monkey at 2 mg/kg, iv or 10 mg/kg, po; format: ADME, organism-based, Macaca mulatta; settings: in vivo
[20] = molecular target: T2, Orexin/Hypocretin receptor type 1 (Homo sapiens); test: Binding affinity to OX1 receptor (unknown origin) assessed as dissociation rate constant
[21] = AUC in rat at 10 mg/kg, po; format: ADME, organism-based; settings: in vivo
[22] = molecular target: T1, Orexin receptor type 2; format: functional, cell-based, CHO
Description: Antagonist activity at human OX2 receptor expressed on CHO cell membrane assessed as inhibition of Ala-6,12 orexin-A-induced calcium increase preincubated for 5 mins prior to Ala-6,12 orexin-A addition measured at 1 sec intervals for 1 min by Fluo-4AM dye-based FLIPR assay

[23] = Oral bioavailability in dog at 3 mg/kg; format: ADME, organism-based, Canis lupus familiaris; settings: in vivo
[24] = Oral bioavailability in rhesus monkey at 30 mg/kg; format: ADME, organism-based, Macaca mulatta; settings: in vivo
[25] = Protein binding in dog plasma; format: ADME, cell-free, Canis lupus familiaris; settings: read-out: PPB (converted)
[26] = Half life in rat at 2 mg/kg, iv or 10 mg/kg, po; format: ADME, organism-based; settings: in vivo
[27] = Protein binding in rat plasma; format: ADME, cell-free; settings: read-out: PPB (converted)
[28] = Clearance in dog at 0.5 mg/kg, iv or 10 mg/kg, po; format: ADME, organism-based, Canis lupus familiaris; settings: in vivo
[29] = Protein binding in rhesus monkey plasma; format: ADME, cell-free, Macaca mulatta; settings: read-out: PPB (converted)
[30] = molecular target: T3, Orexin receptor type 2 (Rattus norvegicus, UniProt P56719); format: functional
T3 sequence (P56719 whole entry): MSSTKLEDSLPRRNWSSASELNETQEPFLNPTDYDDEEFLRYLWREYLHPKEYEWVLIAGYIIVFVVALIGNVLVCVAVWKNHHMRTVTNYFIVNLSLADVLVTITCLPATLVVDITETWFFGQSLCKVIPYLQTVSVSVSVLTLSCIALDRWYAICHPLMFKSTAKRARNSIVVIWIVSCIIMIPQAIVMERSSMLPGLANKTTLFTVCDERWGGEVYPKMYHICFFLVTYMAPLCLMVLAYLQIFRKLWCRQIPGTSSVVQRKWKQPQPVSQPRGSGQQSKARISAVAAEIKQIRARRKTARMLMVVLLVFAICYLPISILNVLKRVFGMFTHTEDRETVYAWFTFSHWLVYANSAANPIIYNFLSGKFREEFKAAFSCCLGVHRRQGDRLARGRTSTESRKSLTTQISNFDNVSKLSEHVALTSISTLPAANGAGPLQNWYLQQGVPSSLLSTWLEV
Description: Antagonist activity at rat OX2 receptor assessed as inhibition of Ala-6,12 orexin-A-induced calcium increase preincubated for 5 mins prior to Ala-6,12 orexin-A addition measured at 1 sec intervals for 1 min by Fluo-4AM dye-based FLIPR assay

[31] = species on record: Rattus norvegicus; test: Selectivity index, ratio of IC50 for rat OX2 receptor to IC50 for rat OX1 receptor
[32] = Intrinsic clearance in dog liver microsomes; format: ADME, Canis lupus familiaris; settings: read-out: CLH
[33] = AUC in rat at 50 mg/kg, po; format: ADME, organism-based; settings: in vivo
[34] = molecular target: T4, Orexin/Hypocretin receptor type 1 (Rattus norvegicus, UniProt P56718); test: Antagonist activity at rat OX1 receptor assessed as inhibition of Ala-6,12 orexin-A-induced calcium increase preincubated for 5 mins prior to Ala-6,12 orexin-A addition measured at 1 sec intervals for 1 min by Fluo-4AM dye-based FLIPR assay; format: functional
T4 sequence (P56718 whole entry): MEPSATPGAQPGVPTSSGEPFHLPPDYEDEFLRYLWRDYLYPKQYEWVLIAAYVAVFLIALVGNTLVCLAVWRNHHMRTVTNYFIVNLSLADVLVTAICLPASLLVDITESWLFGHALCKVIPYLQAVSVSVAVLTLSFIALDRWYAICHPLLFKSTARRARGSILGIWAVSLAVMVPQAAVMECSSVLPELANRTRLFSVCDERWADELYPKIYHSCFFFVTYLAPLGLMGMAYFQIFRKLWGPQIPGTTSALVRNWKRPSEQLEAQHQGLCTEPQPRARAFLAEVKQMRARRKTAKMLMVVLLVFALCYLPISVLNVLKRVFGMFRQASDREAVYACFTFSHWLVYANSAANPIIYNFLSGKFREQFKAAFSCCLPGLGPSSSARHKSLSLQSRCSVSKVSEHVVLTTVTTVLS

[35] = Apparent permeability of the compound; format: ADME; settings: not told
[36] = molecular target: T5, Orexin/Hypocretin receptor type 1 (Homo sapiens, UniProt O43613); test: Binding affinity to OX1 receptor (unknown origin)
T5 sequence (O43613 whole entry): T2 sequence (whole entry)

[37] = Selectivity index, ratio of IC50 for human OX1 receptor to IC50 for rat OX1 receptor
[38] = Aqueous solubility of the compound at pH 2; format: physicochemical; settings: aqueous medium
[39] = AUC in rat at 20 mg/kg, po; format: ADME, organism-based; settings: in vivo
[40] = Drug metabolism in rat liver microsomes assessed as oxidation of banzamide; format: ADME
[41] = Solubility of the compound; format: physicochemical

Ki [2]: > 1930 nM
clearance [3]: 87.5 mL/min/kg
CLint scaled [4]: 761 mL/min/kg
Compound: O=C(c1cccc2[nH]ncc12)N1CCC(F)(F)[C@@H](Oc2ccc3ccccc3n2)C1
Ratio Ki [1]: > 744
Ki [5]: 2.6 nM

bioavailability [6]: 13%
K [7]: 1.08 ×10⁸ /M/s
Cmax [8]: 24 µM
IC50 [9]: 30 nM
Cmax [10]: 0.73 µM
Cmax [12]: 5 µM
clearance [13]: 33 mL/min/kg
CLint scaled [14]: 62 mL/min/kg
CLint scaled [15]: 775 mL/min/kg
half-life [16]: 30 min
solubility [17]: 171 µM (≈ 69.8 µg/mL)
fraction unbound [18]: 0.11
half-life [19]: 48 min
K [20]: 0.102 s⁻¹
AUC [21]: 0.77 µM·h
IC50 [22]: > 10000 nM
bioavailability [23]: 37%
bioavailability [24]: 1%
fraction unbound [25]: 0.08
half-life [26]: 168 min
fraction unbound [27]: 0.08
clearance [28]: 38 mL/min/kg
fraction unbound [29]: 0.06
Ki [30]: > 10000 nM
Ki [2]: 1010 nM
clearance [3]: 75 mL/min/kg
Ratio IC50 [31]: > 625
CLint scaled [32]: 485 mL/min/kg
AUC [33]: 153 µM·h
CLint scaled [4]: 320 mL/min/kg
Ki [34]: 6800 to 10000 nM
Papp [35]: 35 ×10⁻⁶ cm/s
Kd [36]: 0.94 nM
Ratio IC50 [37]: 3 to 4
solubility [38]: 194 µM (≈ 79.2 µg/mL)
AUC [39]: 8.3 µM·h
Compound: O=C(c1cccn2cncc12)N1CCC(F)(F)[C@@H](Oc2ccc3ccccc3n2)C1
Ratio Ki [1]: 561
Occ50 [11]: 0.032 µM
Ki [5]: 1.8 nM

Drug metabolism [40]: Metabolite_Detected
bioavailability [6]: < 1%
solubility [41]: Soluble
Ki [2]: 4310 nM
clearance [3]: 81 mL/min/kg
CLint scaled [4]: 1200 mL/min/kg
Compound: O=C(c1cccc(-n2ccnn2)c1)N1CCC(F)(F)[C@@H](Oc2ccc3ccccc3n2)C1
Ratio Ki [1]: 1230
Ki [5]: 3.5 nM

bioavailability [6]: 10%
Ki [2]: 1410 nM
clearance [3]: 69 mL/min/kg
CLint scaled [4]: 829 mL/min/kg
Compound: O=C(c1cccc2[nH]cnc12)N1CCC(F)(F)[C@@H](Oc2ccc3ccccc3n2)C1
Ratio Ki [1]: 371
Ki [5]: 3.8 nM
